# Results reported in US12569437B2, “Disease-site-specific liposomal formulation” (Osaka University, priority 2017, dated 2026).
# Marks after values point to notes of the source that are not given here.
# Assays:
# Assay type in all cases: in vivo
# [1] = test system: rat monocrotaline (MCT)-induced severe heart failure (pulmonary hypertension) model; experiment: Survival rate in rat monocrotaline-induced pulmonary hypertension model; details: 42 days after MCT
# Source text: The produced Formulation 21 (ONO-1301Lipo formulation) as a test substance was intermittently administered intravenously once weekly to a rat monocrotaline (MCT)-induced severe heart failure (pulmonary hypertension) model from day 7 of the MCT administration, and the survival rate was compared with a group in which compound (A) (ONO-1301) was repeatedly orally administered; a group in which compound (A) was intermittently administered intravenously once weekly; and, as a positive control, a group in which an ET-1 antagonist (bosentan) was orally administered. In the control group, physiological saline (vehicle) was administered once weekly by intravenous administration.
# For animals, Slc: Wistar male rats, 5 weeks old at the start of the test, and 66.4 to 90.8 g at arrival (Japan SLC, Inc.) were used. Monocrotaline (hereinafter referred to as “MCT”), lot No.: SLBG1999V (Sigma-Aldrich Corporation), was administered once subcutaneously at the back of the rats at a dose of 60 mg/kg. Six days after the MCT administration, the animals were divided into groups according to the weight stratification assignment method (Table 19).
# [2] = test system: BLM pulmonary fibrosis model mice; experiment: Survival rate in BLM pulmonary fibrosis model mice; details: day 6 to 28 after BLM
# Procedure: C57BL/6NCr female mice (7 weeks old) were anesthetized with sodium pentobarbital, and then intratracheally (intrapulmonary) administered with 20 μL of a bleomycin hydrochloride aqueous solution (BLM) twice (40 μL in total per animal). In a normal group (Normal), vehicle (physiological saline) was similarly intratracheally administered.
# From 6 days to 28 days after the BLM administration, the test substance was administered to compare the survival rates. As the test substances, compound (A) (ONO-1301) was repeatedly orally administration twice daily, compound (A) (ONO-1301) was intravenously administered once weekly, and compound (A) (ONO-1301) was intratracheally administered once weekly. Further, Formulation 25 (ONO-1301Lipo) was intravenously administered once weekly, and Formulation 25 (ONO-1301Lipo) was intratracheally administered once weekly to analyze the DDS effect of Formulation 25 (ONO-1301Lipo) by comparing the survival rates.
# From 6 days after the preparation of the lung injury model, the vehicle and compound (A) (3 mg/kg) were repeatedly orally administered twice daily for 23 days (the administration interval between morning and afternoon was 8 hours or more).
# (§1) The administration was performed 6 days after the preparation of the lung injury model; after that, tail vein intravenous administration was performed once weekly (4 times in total, i.e., 6, 13, 20, and 27 or 28 days after the preparation of the model).
# as §1, with “intratracheal” for “tail vein intravenous”, “model). In normal Group 9 (Normal), physiological saline was administered in a similar manner.” for “model).”
# [3] = test system: spontaneous dilated cardiomyopathy (J2N-k) hamster model; experiment: Left ventricular wall thickness and area in short-axis sections of removed heart; details: week 8; for Left ventricle wall thickness (mm) Anterior / Left ventricle wall thickness (mm) Lateral / Left ventricle wall thickness (mm) Posterior / Left ventricle wall thickness (mm) Septum: middle section
# Procedure: Dissection was performed as follows. After all of the blood was collected from the abdominal aorta, and the hamsters were euthanized under isoflurane anesthesia, the heart and lungs were removed and weighed. After the weights thereof were measured, the removed parts, including the left and right ventricles, were divided into three parts; i.e., apical, middle, and basal parts, at intervals of about 2 mm along the short axis.
# When removed, the heart, including the left and right ventricles, was divided into three parts; i.e., apical, middle, and basal parts, at intervals of about 2 mm along the short axis. Among them, one section of the middle part was photographed, and the wall thickness at the anterior, lateral, posterior, and septum parts, and the left ventricular area were measured using image-editing software. For the wall thickness of the left ventricle, image-editing software was used, the number of pixels in the scale area of 1 mm^2 on the photograph was obtained, and the outer diameter and inner diameter of the entire left ventricle wall were traced to obtain each number of pixels to thus calculate the left ventricular area by ((the number of pixels of the outer diameter−the number of pixels of the inner diameter)/1 mm^2). Thereafter, the wall thickness of each portion was measured.
# The section was divided into three parts; i.e., apical, middle, and basal areas, at intervals of about 2 mm. Thereafter, using one section on the middle side, the wall thickness at the anterior, lateral, posterior, and septum parts, and the left ventricular area were measured. For the wall thickness of the left ventricle, image-editing software was used, the number of pixels in the scale area of 1 mm^2 on the photograph was obtained, and the outer diameter and inner diameter of the entire left ventricle wall were traced to obtain each number of pixels to thus calculate the left ventricular wall area by ((the number of pixels of the outer diameter−the number of pixels of the inner diameter)/1 mm^2). Thereafter, the wall thickness of each portion was measured.
# [4] = test system: rat model of ischemia by complete coronary artery ligation; experiment: Infarct area evaluation in rat myocardial ischemia model; details: 3.0 mg/kg single i.v., day 14
# Procedure: Dissection was performed after the completion of the echocardiography at day 14 after the administration of the test substance. For dissection, all of the blood was collected from the abdominal aorta, and the rats were euthanized under isoflurane anesthesia; thereafter, the heart was removed and weighed. After measuring the heart weight, the infarct area, including the left and right ventricles, was divided into three parts along the short axis.
# (§2) For the sections, the apical portion was removed, and the middle area was sectioned into two parts at an interval of about 2 mm. Thereafter, the infarct area of the two sections on the apical and basal sides was measured. The infarct area was evaluated based on the ratio of the infarct area to the entire left ventricular area, and the ratio of the length of the normal area or the infarct area to the left ventricular outer diameter.
# […]
# [5] = 3.0 mg/kg intravenous once/2 weeks
compound,measurement,setting,value
"O=C(O)COc1cccc2c1CCC=C2CCO/N=C(\c1ccccc1)c1cccnc1 [Compound (A), ({5-[2-({[(1E)-phenyl(pyridin-3-yl)methylene]amino}oxy)ethyl]-7,8-dihydronaphthalen-1-yl}oxy)acetic acid]",Survival rate (%),[1]; intravenous 1 mg/kg/week from day 7,20%
same,Survival rate (%),[1]; oral 3 mg/kg × twice/day from day 7,50* %
same,survival rate,[2]; intratracheal 1 mg/kg once/week,20%
same,survival rate,[2]; intravenous 3 mg/kg once/week,40%
same,survival rate,[2]; oral 3 mg/kg twice/day,60%
same,Left ventricular area (Middle part) (mm^2),[3]; 3.0 mg/kg i.v. once/2 weeks,23.9 ± 4.5 mm^2
same,Left ventricle wall thickness (mm) Anterior,[3]; [5],1.1 ± 0.6 mm
same,Left ventricle wall thickness (mm) Lateral,[3]; [5],1.2 ± 0.3 mm
same,Left ventricle wall thickness (mm) Posterior,[3]; [5],1.2 ± 0.2 mm
same,Left ventricle wall thickness (mm) Septum,[3]; [5],1.0 ± 0.3 mm
same,Left ventricle wall thickness (mm) Anterior,[3]; 3.0 mg/kg p.o. twice/day,1.4 ± 0.5 mm
same,Left ventricle wall thickness (mm) Lateral,[3]; 3.0 mg/kg p.o. twice/day,1.5 ± 0.2 mm
same,Left ventricle wall thickness (mm) Posterior,[3]; 3.0 mg/kg p.o. twice/day,1.2 ± 0.4 mm
same,Left ventricle wall thickness (mm) Septum,[3]; 3.0 mg/kg p.o. twice/day,1.5 ± 0.3 mm
same,Left ventricular area (Middle part) (mm^2),[3]; 3.0 mg/kg p.o. twice/day,26.4 ± 4.3 mm^2
same,Left ventricular area (mm^2) Infarct region,[4]; first of two sections,18.1 ± 5.18 mm^2
same,Left ventricular area (mm^2) Normal region,[4]; first of two sections,31.1 ± 2.83 mm^2
same,Left ventricular area Infarct rate (%),[4]; first of two sections,36 ± 8.0%
same,Left ventricular outer diameter (cm) Infarct region,[4]; first of two sections,1.5 ± 0.15 cm
same,Left ventricular outer diameter (cm) Normal region,[4]; first of two sections,1.7 ± 0.41 cm
same,Left ventricular outer diameter Infarct rate (%),[4]; first of two sections,46 ± 7.5%
same,Left ventricular area (mm^2) Infarct region,[4]; second of two sections,14.6 ± 3.23 mm^2
same,Left ventricular area (mm^2) Normal region,[4]; second of two sections,41.0 ± 8.03 mm^2
same,Left ventricular area Infarct rate (%),[4]; second of two sections,26 ± 2.2%
same,Left ventricular outer diameter (cm) Infarct region,[4]; second of two sections,1.2 ± 0.37 cm
same,Left ventricular outer diameter (cm) Normal region,[4]; second of two sections,2.3 ± 0.41 cm
same,Left ventricular outer diameter Infarct rate (%),[4]; second of two sections,34 ± 10.2%
